{
  "source": "patent US6359129B1",
  "about": "“Amino acid-derived, 7-membered cyclic sulfamides and methods of synthesizing the same” (University of Kansas, priority 2000, dated 2002)",
  "format_in_all_cases": "biochemical",
  "key": {"HIV protease": {"target": "T1, HIV protease (Human immunodeficiency virus type 1 group M subtype B, UniProt P04585)", "T1 construct": "a key virally encoded protease enzyme of the pol gene", "assay": "Inhibition of HIV protease", "conditions": "compound at 99 μmolar", "description": "The inhibition of HIV protease by the compounds shown in Scheme S (99 μmolar), Scheme T (99 μmolar), and Scheme U (99 μmolar) was determined following the procedure described by Maschera et al., Human Immunodeficiency Virus: Mutations in the Viral Protease that Confer Resistance to Saquinavir Increase the Dissociation Rate Constant for the Protease-Saquinavir Complex, J. Biol. Chem., 271:33231-35 (1996), incorporated by reference herein. [drawing 26] [drawing 27] [drawing 28]"}, "human cathepsin K": {"target": "T2, human cathepsin K (Homo sapiens, UniProt P43235)", "T2 sequence (P43235 115-329)": "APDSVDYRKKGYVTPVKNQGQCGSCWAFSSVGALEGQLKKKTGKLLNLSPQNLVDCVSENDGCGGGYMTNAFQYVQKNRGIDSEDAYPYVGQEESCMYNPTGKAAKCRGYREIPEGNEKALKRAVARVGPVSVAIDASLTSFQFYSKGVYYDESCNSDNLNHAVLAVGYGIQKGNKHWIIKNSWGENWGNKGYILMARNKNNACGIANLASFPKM", "assay": "Inhibition of human cathepsin K (fluorogenic peptide assay)", "conditions": "compound at 106 μmolar; pH 5.5, 10 μmolar peptide, 32° C.", "description": "The inhibition of human cathepsin K by the compounds shown in Schemes V (106 μmolar) and W (106 μmolar) was determined. [drawing 29] [drawing 30]\nThe peptides utilized were chromophoric Z-Phe-Arg-pNA*HCl and fluorogenic Z-Phe-Arg-AMC (each available from BACHEM Bioscience, Inc.). Stock solutions were prepared with 100% dimethylsulfoxide (DMSO) and stored at −20° C.\nThe final assay conditions were 100 mM NaOAc, pH of 5.5, 10 mM (R,R)-dithiothreitol (DTT), 10% DMSO, 120 mM NaCl, 10 μmolar of the peptide, and 12.5-0.012 μmolar inhibitor in twofold serial dilutions from 20× stocks in 100% DMSO. The enzyme working solution was a 1:3000 dilution of […] human cathepsin K into 100 mM of NaOAc, pH of 5.5, 10 mM DTT, 1.2 M NaCl.\nSerial dilutions were performed in 100% DMSO. Columns 2-12 of an intermediate plate were filled with […] of 100% DMSO and column 1 was filled with […]. Next, […] of a 10 mM solution was added to column 1. […] The fluorescence was monitored every 6 minutes for 72 minutes using a CytoFluor Series 4000 PerSeptive Biosystems multi-well fluorescence plate reader with the following settings: gain=50; 20 reads/well; 32° C.; lex=360±20 nm; and lem=440±20 nm."}, "[1]": {"target": "Herpes Simplex Virus Protease (Human herpesvirus 1, UniProt P10210)", "sequence (P10210 1-247)": "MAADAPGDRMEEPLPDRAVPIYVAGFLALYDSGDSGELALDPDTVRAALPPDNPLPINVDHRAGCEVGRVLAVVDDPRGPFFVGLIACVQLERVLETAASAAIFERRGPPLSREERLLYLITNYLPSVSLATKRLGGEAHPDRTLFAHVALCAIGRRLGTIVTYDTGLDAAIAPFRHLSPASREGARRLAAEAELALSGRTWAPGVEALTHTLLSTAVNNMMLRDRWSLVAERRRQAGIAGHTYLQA", "assay": "Inhibition of Herpes Simplex Virus Protease", "conditions": "compound tested at 200 μmolar", "description": "The inhibition of Herpes Simplex Virus Protease by the compound shown in Scheme R was determined according to the procedure described by Waxman et al., Antiviral Chemistry and Chemotherapy, 11:1-22 (1999); Qiu et al., Proteases of Infectious Agents, Academic Press, 93-115 (1999); and U.S. Pat. No. 6,008,033, each incorporated by reference herein.\nThe compound was tested at a concentration of 200 μmolar. [drawing 25]"}},
  "data": [
    {"smiles": "COC(=O)C(Cc1ccccc1)N1CC(O)C(O)CN(C(Cc2ccccc2)C(=O)OC)S1(=O)=O", "note": "(stereo not drawn) [Scheme T]", "values": [
      {"measurement": "inhibition at 99 µM", "setting": "HIV protease", "value": 22, "unit": "%"}
    ]},
    {"smiles": "CC(C)CC(C(=O)NO)N1CC=CCN(C(CC(C)C)C(=O)NO)S1(=O)=O", "note": "(stereo not drawn) [Scheme W]", "values": [
      {"measurement": "inhibition at 106 µM", "setting": "human cathepsin K", "value": 14, "unit": "%"}
    ]},
    {"smiles": "COC(=O)C(Cc1ccccc1)N1CC(O)C(O)CN(Cc2ccccc2)S1(=O)=O", "note": "(stereo not drawn) [Scheme R]", "values": [
      {"measurement": "inhibition at 200 µM", "setting": "[1]", "value": 20.5, "unit": "%"}
    ]},
    {"smiles": "COC(=O)C(Cc1ccccc1)N1CC(O)C(O)CN(Cc2ccccc2)S1(=O)=O", "note": "(stereo not drawn) [Scheme U]", "values": [
      {"measurement": "inhibition at 99 µM", "setting": "HIV protease", "value": 21, "unit": "%"}
    ]},
    {"smiles": "CC(C)CC(COCc1ccccc1)N1CC=CCN(C(COCc2ccccc2)CC(C)C)S1(=O)=O", "note": "(stereo not drawn) [Scheme V]", "values": [
      {"measurement": "inhibition at 106 µM", "setting": "human cathepsin K", "value": 20, "unit": "%"}
    ]},
    {"smiles": "CC(C)CC(COCc1ccccc1)N1CC=CCN(C(COCc2ccccc2)CC(C)C)S1(=O)=O", "note": "(stereo not drawn) [Scheme S]", "values": [
      {"measurement": "inhibition at 99 µM", "setting": "HIV protease", "value": 96, "unit": "%"}
    ]}
  ]
}
